Patent publication US8273754B2, “Substituted 1H-pyrazolo[3,4-D]pyrimidine-6-amine compounds” (ArQule, Inc., priority 2008, dated 2012)
pIC50: −log10 of the molar value. Like-named read-outs stand apart in the source and are kept apart here.

Tests used:
[1] = tested on: cancer cells; assay: MTS cell growth inhibition assay (72 hours); type: cell-based
In short: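 Growth inhibition read as formazan absorbance at 492 nm after 4 h MTS/PMS, following 72 h compound exposure at 37 °C in 1% FBS DMEM (cells pre-seeded 18 h). IC50 = 50% absorbance reduction; inhibition graded in bands.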

[2] = target: T1, FGFR2 (N549H) (Homo sapiens, UniProt P21802, N549H); assay: fluorescent ELISA assay for inhibitors of FGFR2 kinase; type: biochemical; details: Pyk2 peptide substrate, 60 minutes
T1 construct: purchased Millipore 14-742
T1 sequence (P21802 22-821 N549H): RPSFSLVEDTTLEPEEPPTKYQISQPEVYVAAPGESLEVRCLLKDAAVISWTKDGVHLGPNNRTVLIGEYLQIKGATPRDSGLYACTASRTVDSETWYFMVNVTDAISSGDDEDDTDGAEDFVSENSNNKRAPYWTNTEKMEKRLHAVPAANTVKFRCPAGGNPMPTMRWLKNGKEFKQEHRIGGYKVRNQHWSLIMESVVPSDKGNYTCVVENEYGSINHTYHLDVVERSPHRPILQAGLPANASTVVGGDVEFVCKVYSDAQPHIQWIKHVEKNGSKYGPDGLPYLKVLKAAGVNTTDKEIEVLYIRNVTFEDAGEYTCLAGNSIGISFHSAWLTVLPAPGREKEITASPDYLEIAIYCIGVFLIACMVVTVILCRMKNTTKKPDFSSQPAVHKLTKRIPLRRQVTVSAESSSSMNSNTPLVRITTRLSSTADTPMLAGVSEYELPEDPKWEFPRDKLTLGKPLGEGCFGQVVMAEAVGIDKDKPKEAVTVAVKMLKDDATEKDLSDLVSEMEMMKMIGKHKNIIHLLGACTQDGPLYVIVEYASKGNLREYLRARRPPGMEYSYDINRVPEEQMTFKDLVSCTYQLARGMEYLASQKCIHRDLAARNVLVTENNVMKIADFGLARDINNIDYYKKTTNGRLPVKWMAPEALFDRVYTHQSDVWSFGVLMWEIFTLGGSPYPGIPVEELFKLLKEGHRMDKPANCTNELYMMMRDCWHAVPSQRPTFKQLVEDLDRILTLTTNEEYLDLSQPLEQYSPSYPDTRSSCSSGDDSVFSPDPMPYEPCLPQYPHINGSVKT
Protocol: The enzymatic assays described herein are conducted according to the following procedures from commercially available reagents. In one non-limiting example, a fluorescent ELISA assay is used to identify and characterize inhibitors of FGFR2 kinase as described herein. This heterogeneous assay utilizes a biotinylated peptide with a tyrosine motif as a substrate and an anti-phospho-tyrosine antibody to measure phosphorylation of the substrate. The reaction is initiated by adding the test compound, 37 μM Pyk2 substrate (Midwest Biotech, Cat. #MBT2383), 12.5 μM ATP (Roche, Cat. #11 140 965 001) and 0.5 μM FGFR2 enzyme (Millipore, Cat. #14-742) sequentially to a non-binding polypropylene V-well plate. All reagents are in an assay buffer consisting of: 50 mM Tris-HCL, 0.02 mg/ml BSA, 10 mM MgCl2, 0.1 mM Na3VO4, 1 mM EGTA, 75 μM ATP, 0.01% NP-40, 2 mM DTT and 10% glycerol. The reaction is incubated for 60 minutes. As the reaction proceeds, FGFR2 phosphorylates tyrosines in the peptide. The reaction mixture is then moved to a blocked streptavidin-coated Nunc Maxisorb plate (coated with 100 ng streptavidin from Pierce (Cat. #15-124) per well), allowing for the capture of the biotinylated peptide. Peptides are captured for 30 minutes at room temperature, the phosphorylation of peptides continues during this phase. The reaction is stopped by washing the streptavidin-coated plate 6 times with TBST. Phosphorylated peptide is detected by adding anti-phospho-tyrosine antibody (Cell Signaling, Cat. #9411, diluted 1:3000) to the streptavidin-coated plate. Unbound anti-phospho-tyrosine antibody is removed by washing the streptavidin-coated plate 6 times with TBST. Secondary detection is performed using alkaline phosphatase tagged goat anti-mouse antibody (Pierce, Cat. #31320, diluted 1:4000) for one hour. Unbound secondary antibody is removed by washing the streptavidin-coated plate 6 times with TBST. The fluorescent readout is initiated by adding to the streptavidin-coated plate Promega Attophos substrate (Promega, Cat. #S1000, dilution=6 mg/10 ml), which, when dephosphorylated by alkaline phosphatase, emits a fluorescent signal of 595 nm in wavelength when excited by a signal of 400 nm in wavelength. The reading of the 595 nm signal is done on the Perkin Elmer Envision system. Compounds which prevent FGFR2 from phosphorylating the peptide result in a lower fluorescent signal. The 595 nm fluorescent signal is directly proportional to the activity of FGFR2. Thus, the inhibition of FGFR2 by compounds is monitored by the decrease in the 595 nm fluorescent signal.

[3] = Homo sapiens, DLD-1, 72 h, DLD-1 cells, read-out: DLD-1 MTS 72 hr at 10 μM
[4] = Homo sapiens, KATO III, 72 h, KATO III cells, read-out: KATO III MTS 72 hr at 10 μM
[5] = Homo sapiens, MDA-MB-231, 72 h, MDA-MB-231 cells, read-out: MDA-MB-231 MTS 72 hr at 10 μM
[6] = Homo sapiens, NCI-H1299, 72 h, NCI-H1299 cells, read-out: NCI-H1299 MTS 72 hr at 10 μM
[7] = PaCa-2, 72 h, PACA-2 cells, read-out: PACA-2 MTS 72 hr at 10 μM

Compound | inhibition at 10 µM [1, 3] | inhibition at 10 µM [1, 4] | inhibition at 10 µM [1, 5] | inhibition at 10 µM [1, 6] | inhibition at 10 µM [1, 7] | pIC50 [2]
Nc1nc(NC2Cc3ccccc3N(Cc3ccccc3)C2)c2cn[nH]c2n1 (stereo not drawn) [Compound 125, N4-(1-benzyl-1,2,3,4-tetrahydroquinolin-3-yl)-1H-pyrazolo[3,4-d]pyrimidine-4,6-diamine] | < 50% | < 50% | < 50% | < 50% | < 50% | 4.77
Nc1nc(NC2Cc3ccccc3N(S(=O)(=O)c3ccc(F)cc3Cl)C2)c2cn[nH]c2n1 (stereo not drawn) [Compound 53, N4-(1-(2-chloro-4-fluorophenylsulfonyl)-1,2,3,4-tetrahydroquinolin-3-yl)-1H-pyrazolo[3,4-d]pyrimidine-4,6-diamine] | < 50% | < 50% | < 50% | < 50% | < 50% | 6.39
Nc1nc(NC2Cc3ccccc3N(S(=O)(=O)c3ccc(Br)cc3)C2)c2cn[nH]c2n1 (stereo not drawn) [Compound 37, N4-(1-(4-bromophenylsulfonyl)-1,2,3,4-tetrahydroquinolin-3-yl)-1H-pyrazolo[3,4-d]pyrimidine-4,6-diamine] | < 50% | < 50% | < 50% | < 50% | < 50% | 5.44
CC(C)(C)c1ccc(CN2CC(Nc3nc(N)nc4[nH]ncc34)Cc3ccccc32)cc1 (stereo not drawn) [Compound 131, N4-[1-(4-tert-butylbenzyl)-1,2,3,4-tetrahydroquinolin-3-yl]-1H-pyrazolo[3,4-d]pyrimidine-4,6-diamine] | < 50% | < 50% | < 50% | < 50% | < 50% | < 4.52
CC(C)(C)c1ccc(S(=O)(=O)N2CC(Nc3nc(N)nc4[nH]ncc34)Cc3ccccc32)cc1 (stereo not drawn) [Compound 33, N4-(1-(4-tert-butylphenylsulfonyl)-1,2,3,4-tetrahydroquinolin-3-yl)-1H-pyrazolo[3,4-d]pyrimidine-4,6-diamine] | 50 to 79% | 50 to 79% | 50 to 79% | < 50% | > 79% | < 4.52
Cn1ccc(S(=O)(=O)N2CC(Nc3nc(N)nc4[nH]ncc34)Cc3ccccc32)n1 (stereo not drawn) [Compound 54, N4-(1-(1-methyl-1H-pyrazol-3-ylsulfonyl)-1,2,3,4-tetrahydroquinolin-3-yl)-1H-pyrazolo[3,4-d]pyrimidine-4,6-diamine] | < 50% | < 50% | < 50% | < 50% | < 50% | < 4.52
Nc1nc(NC2Cc3ccccc3N(S(=O)(=O)c3c(F)cccc3F)C2)c2cn[nH]c2n1 (stereo not drawn) [Compound 58, N4-(1-(2,6-difluorophenylsulfonyl)-1,2,3,4-tetrahydroquinolin-3-yl)-1H-pyrazolo[3,4-d]pyrimidine-4,6-diamine] | < 50% | < 50% | < 50% | < 50% | < 50% | 4.89
Nc1nc(NC2Cc3ccccc3N(S(=O)(=O)c3ccc(F)c(Cl)c3)C2)c2cn[nH]c2n1 (stereo not drawn) [Compound 43, N4-(1-(3-chloro-4-fluorophenylsulfonyl)-1,2,3,4-tetrahydroquinolin-3-yl)-1H-pyrazolo[3,4-d]pyrimidine-4,6-diamine] | > 79% | > 79% | > 79% | > 79% | > 79% | 6.57
